Data published in ChEMBL document CHEMBL5463723, “Data for DCP probe BIBO3304” (2023).

Columns and labels:
[1] = target: Nitric oxide synthase, inducible (Mus musculus) (UniProt P29477); test: Activity against INOS in the Eurofins Panlabs screen (BI) by absorption of electromagnetic radiation; settings: Compound concentration 10.0 uM
[2] = target: Muscarinic acetylcholine receptor M3 (Rattus norvegicus) (UniProt P08483); test: Activity against M3/R in the Eurofins Panlabs screen (BI) by Radioactive Assay; settings: Compound concentration 10.0 uM
[3] = target: Epidermal growth factor receptor (Homo sapiens) (UniProt P00533); test: Activity against EGF/HU in the Eurofins Panlabs screen (BI) by Radioactive Assay; settings: Compound concentration 10.0 uM
Epidermal growth factor receptor (Homo sapiens), sequence (P00533 whole entry): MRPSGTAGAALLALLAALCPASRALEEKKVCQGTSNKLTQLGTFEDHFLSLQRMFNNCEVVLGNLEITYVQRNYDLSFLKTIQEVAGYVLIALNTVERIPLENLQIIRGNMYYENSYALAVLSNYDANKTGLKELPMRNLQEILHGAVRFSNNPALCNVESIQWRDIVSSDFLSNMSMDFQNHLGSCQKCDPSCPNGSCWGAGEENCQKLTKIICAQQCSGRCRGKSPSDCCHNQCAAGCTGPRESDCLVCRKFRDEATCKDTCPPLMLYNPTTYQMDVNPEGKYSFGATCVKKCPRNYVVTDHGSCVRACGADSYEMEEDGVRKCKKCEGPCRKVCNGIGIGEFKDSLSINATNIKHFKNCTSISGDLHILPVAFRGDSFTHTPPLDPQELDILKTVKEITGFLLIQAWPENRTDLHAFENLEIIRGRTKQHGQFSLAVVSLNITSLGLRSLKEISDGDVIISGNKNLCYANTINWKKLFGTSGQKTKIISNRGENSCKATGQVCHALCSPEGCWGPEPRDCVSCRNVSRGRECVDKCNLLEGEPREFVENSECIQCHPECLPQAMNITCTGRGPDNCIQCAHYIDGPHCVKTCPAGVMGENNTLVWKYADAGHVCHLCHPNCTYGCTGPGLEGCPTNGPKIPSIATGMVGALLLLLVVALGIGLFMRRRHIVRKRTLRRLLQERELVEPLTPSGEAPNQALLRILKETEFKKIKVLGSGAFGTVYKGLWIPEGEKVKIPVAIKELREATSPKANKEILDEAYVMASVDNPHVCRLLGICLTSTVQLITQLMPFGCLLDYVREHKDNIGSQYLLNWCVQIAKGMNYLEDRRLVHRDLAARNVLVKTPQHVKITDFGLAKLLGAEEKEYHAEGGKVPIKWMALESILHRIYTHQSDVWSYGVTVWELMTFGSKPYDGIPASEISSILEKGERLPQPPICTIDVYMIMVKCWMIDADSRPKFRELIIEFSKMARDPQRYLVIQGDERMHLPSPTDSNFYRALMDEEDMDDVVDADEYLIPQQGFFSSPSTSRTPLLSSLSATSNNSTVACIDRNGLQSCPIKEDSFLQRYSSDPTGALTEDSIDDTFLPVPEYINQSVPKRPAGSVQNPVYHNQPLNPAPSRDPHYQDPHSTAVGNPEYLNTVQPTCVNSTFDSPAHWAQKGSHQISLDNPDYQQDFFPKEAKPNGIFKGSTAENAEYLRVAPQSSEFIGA

[4] = target: Vasopressin V1a receptor (Homo sapiens) (UniProt P37288); test: V1a Eurofins-Cerep binding assay; set-up: ligand concentration 0.3 nM; settings: Compound concentration 10.0 uM
[5] = target: Sodium-dependent serotonin transporter (Homo sapiens) (UniProt P31645); test: 5-HT transporter Eurofins-Cerep binding assay; set-up: ligand concentration 2 nM; settings: Compound concentration 10.0 uM
[6] = target: Muscarinic acetylcholine receptor M1 (Rattus norvegicus) (UniProt P08482); test: Activity against M1/R in the Eurofins Panlabs screen (BI) by Radioactive Assay; settings: Compound concentration 10.0 uM
[7] = target: Beta-2 adrenergic receptor (Rattus norvegicus) (UniProt P10608); test: Activity against BETA2/R in the Eurofins Panlabs screen (BI) by Radioactive Assay; settings: Compound concentration 10.0 uM
Beta-2 adrenergic receptor (Rattus norvegicus), sequence (P10608 whole entry, looked up): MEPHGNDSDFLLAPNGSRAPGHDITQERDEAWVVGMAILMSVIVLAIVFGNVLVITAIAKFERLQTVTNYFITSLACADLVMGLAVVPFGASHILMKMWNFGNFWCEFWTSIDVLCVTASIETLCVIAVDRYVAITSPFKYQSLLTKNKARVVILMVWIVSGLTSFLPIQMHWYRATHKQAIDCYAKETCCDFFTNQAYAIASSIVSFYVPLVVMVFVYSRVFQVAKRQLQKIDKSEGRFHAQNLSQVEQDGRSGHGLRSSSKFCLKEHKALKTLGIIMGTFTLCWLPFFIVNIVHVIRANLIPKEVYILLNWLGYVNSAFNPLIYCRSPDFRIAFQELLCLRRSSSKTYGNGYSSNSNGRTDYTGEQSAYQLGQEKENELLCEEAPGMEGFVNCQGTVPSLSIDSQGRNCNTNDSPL

[8] = target: Gamma-aminobutyric acid receptor subunit alpha-1 (Rattus norvegicus) (UniProt P62813); test: Activity against GABAACENTR in the Eurofins Panlabs screen (BI) by Radioactive Assay; settings: Compound concentration 10.0 uM
Gamma-aminobutyric acid receptor subunit alpha-1 (Rattus norvegicus), sequence (P62813 whole entry): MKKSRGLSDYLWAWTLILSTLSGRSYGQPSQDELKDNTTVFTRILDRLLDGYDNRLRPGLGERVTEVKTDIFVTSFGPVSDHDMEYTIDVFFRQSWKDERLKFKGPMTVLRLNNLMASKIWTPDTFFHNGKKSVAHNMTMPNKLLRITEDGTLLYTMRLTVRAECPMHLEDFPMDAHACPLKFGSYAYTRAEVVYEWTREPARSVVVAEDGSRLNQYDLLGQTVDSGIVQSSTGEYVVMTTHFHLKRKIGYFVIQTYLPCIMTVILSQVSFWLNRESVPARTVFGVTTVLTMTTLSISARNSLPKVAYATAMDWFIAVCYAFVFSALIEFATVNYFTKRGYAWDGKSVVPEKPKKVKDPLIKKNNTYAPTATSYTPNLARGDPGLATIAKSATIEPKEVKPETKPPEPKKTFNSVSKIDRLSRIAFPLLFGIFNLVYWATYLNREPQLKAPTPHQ

[9] = target: Cannabinoid receptor 2 (Homo sapiens) (UniProt P34972); test: Activity against CB2/PERIPH/H in the Eurofins Cerep SafetyScreen44 (BI) by Radioactive Assay (Cerep_37); settings: Compound concentration 10.0 uM
[10] = target: Progesterone receptor (Bos taurus) (UniProt Q690N0); test: Activity against PROGEST/BO in the Eurofins Panlabs screen (BI) by Radioactive Assay; settings: Compound concentration 10.0 uM
[11] = target: Histamine H1 receptor (Cavia porcellus) (UniProt P31389); test: Activity against H1/CENT/GP in the Eurofins Panlabs screen (BI) by Radioactive Assay; settings: Compound concentration 10.0 uM
[12] = target: Protein kinase C alpha type (Homo sapiens) (UniProt P17252); test: Inhibitor of PKCALPHA in the Eurofins Panlabs screen (BI) by Radioactive Assay; settings: Compound concentration 10.0 uM
[13] = target: Calpain-1 catalytic subunit (Homo sapiens) (UniProt P07384); test: Inhibitor of CALPAIN in the Eurofins Panlabs screen (BI) by FI - fluorescence intensity; settings: Compound concentration 10.0 uM
[14] = target: 5-hydroxytryptamine receptor 2A (Homo sapiens) (UniProt P28223); test: Agonist activity in the Eurofins Cerep SafetyScreen44 (BI) against 5HT2AH_AGON by Scintillation counting (Cerep_471); settings: Compound concentration 10.0 uM
[15] = target: 3',5'-cyclic-AMP phosphodiesterase 4D (Homo sapiens) (UniProt Q08499); test: Inhibitor of PDE4D2 in the Eurofins Cerep SafetyScreen44 (BI) by Scintillation counting (Cerep_4077); settings: Compound concentration 10.0 uM
Rattus norvegicus = organism: Rattus norvegicus; test: KV channel Eurofins-Cerep binding assay; set-up: ligand concentration 0.01 nM; settings: Compound concentration 10.0 uM
[16] = target: Glutamate receptor 1 (Rattus norvegicus) (UniProt P19490); test: Activity against AMPA/RA in the Eurofins Panlabs screen (BI); settings: Compound concentration 10.0 uM
[17] = target: Alpha-1A adrenergic receptor (Homo sapiens) (UniProt P35348); test: Agonist activity in the Eurofins Cerep SafetyScreen44 (BI) against ALPHA1AH_ANTAG by Scintillation counting (Cerep_2338); settings: Compound concentration 10.0 uM
Alpha-1A adrenergic receptor (Homo sapiens), sequence (P35348 whole entry): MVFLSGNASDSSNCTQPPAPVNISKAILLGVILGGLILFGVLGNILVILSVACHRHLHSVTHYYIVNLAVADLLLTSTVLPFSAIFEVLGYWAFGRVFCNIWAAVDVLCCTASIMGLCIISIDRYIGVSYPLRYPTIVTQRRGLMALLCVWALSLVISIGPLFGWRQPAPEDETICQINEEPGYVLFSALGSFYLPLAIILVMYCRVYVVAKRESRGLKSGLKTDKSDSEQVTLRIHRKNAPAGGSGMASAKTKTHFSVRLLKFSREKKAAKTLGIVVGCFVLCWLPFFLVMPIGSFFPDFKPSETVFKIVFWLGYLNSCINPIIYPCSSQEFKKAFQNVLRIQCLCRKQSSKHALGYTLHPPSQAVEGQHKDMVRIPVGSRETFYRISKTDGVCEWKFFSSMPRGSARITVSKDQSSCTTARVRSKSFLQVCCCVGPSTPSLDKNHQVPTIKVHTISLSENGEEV

[18] = target: Neuropeptide Y receptor type 2 (Rattus norvegicus, UniProt Q9ERC0); test: Radioligand binding assay (NPY2R, rat hippocampus); type: tissue-based
Neuropeptide Y receptor type 2 (Rattus norvegicus, UniProt Q9ERC0), sequence (Q9ERC0 whole entry): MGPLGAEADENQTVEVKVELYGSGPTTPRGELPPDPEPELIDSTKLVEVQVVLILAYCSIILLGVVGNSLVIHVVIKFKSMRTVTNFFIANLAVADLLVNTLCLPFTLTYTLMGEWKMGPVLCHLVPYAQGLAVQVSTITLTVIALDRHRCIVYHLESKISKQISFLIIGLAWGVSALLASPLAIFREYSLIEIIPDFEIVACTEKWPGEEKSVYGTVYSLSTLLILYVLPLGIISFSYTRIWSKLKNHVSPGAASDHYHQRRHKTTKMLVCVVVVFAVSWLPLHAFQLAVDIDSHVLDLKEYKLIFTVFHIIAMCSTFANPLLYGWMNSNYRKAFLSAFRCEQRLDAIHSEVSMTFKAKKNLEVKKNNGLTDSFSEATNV

[19] = target: Alpha-1A adrenergic receptor (Homo sapiens) (UniProt P35348); test: Activity against ALPHA1A/R in the Eurofins Panlabs screen (BI) by Others; settings: Rattus norvegicus; Compound concentration 10.0 uM
[20] = target: Cannabinoid receptor 1 (Homo sapiens) (UniProt P21554); test: CB1 Eurofins-Cerep binding assay; settings: Compound concentration 10.0 uM
[21] = target: Epidermal growth factor receptor (Homo sapiens) (UniProt P00533); test: Inhibitor of EGFRTYRKIN in the Eurofins Panlabs screen (BI) by Fluorimetry; settings: Compound concentration 10.0 uM
[22] = target: D(2) dopamine receptor (Rattus norvegicus) (UniProt P61169); test: Activity against D2/RAC/R in the Eurofins Panlabs screen (BI); settings: Compound concentration 10.0 uM
[23] = target: Polyunsaturated fatty acid lipoxygenase ALOX15 (Oryctolagus cuniculus) (UniProt P12530); test: Inhibitor of 15LO in the Eurofins Panlabs screen (BI) by absorption of electromagnetic radiation; settings: Compound concentration 30.0 uM
Polyunsaturated fatty acid lipoxygenase ALOX15 (Oryctolagus cuniculus), sequence (P12530 whole entry): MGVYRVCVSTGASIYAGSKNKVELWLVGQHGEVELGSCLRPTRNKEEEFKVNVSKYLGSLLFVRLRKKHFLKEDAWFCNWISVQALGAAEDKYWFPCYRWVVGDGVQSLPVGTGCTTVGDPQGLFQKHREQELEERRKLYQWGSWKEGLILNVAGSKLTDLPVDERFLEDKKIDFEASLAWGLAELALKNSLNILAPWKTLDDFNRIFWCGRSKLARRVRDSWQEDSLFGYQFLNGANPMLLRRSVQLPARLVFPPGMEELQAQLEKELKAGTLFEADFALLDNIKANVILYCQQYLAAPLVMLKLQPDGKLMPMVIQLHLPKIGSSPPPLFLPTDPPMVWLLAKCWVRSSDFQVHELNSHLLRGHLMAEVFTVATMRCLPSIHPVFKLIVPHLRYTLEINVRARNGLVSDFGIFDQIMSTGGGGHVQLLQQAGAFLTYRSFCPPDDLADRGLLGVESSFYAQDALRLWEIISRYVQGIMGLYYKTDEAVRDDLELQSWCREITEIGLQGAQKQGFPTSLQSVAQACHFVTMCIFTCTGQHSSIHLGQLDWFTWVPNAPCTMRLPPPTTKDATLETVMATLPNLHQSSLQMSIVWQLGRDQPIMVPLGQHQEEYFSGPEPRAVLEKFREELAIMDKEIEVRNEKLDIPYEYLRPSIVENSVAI

Cavia porcellus = organism: Cavia porcellus; test: Activity against ANF/GP in the Eurofins Panlabs screen (BI) by Radioactive Assay; settings: Compound concentration 10.0 uM
[24] = target: Neutrophil elastase (Homo sapiens) (UniProt P08246); test: Activity against ELASTASEPMN in the Eurofins Panlabs screen (BI) by absorption of electromagnetic radiation; settings: Compound concentration 30.0 uM
[25] = target: T1, Neuropeptide Y receptor type 2 (Homo sapiens, UniProt P49146); test: Radioligand binding assay (NPY2R, BHK); type: cell-based, BHK-21
T1 sequence (P49146 whole entry): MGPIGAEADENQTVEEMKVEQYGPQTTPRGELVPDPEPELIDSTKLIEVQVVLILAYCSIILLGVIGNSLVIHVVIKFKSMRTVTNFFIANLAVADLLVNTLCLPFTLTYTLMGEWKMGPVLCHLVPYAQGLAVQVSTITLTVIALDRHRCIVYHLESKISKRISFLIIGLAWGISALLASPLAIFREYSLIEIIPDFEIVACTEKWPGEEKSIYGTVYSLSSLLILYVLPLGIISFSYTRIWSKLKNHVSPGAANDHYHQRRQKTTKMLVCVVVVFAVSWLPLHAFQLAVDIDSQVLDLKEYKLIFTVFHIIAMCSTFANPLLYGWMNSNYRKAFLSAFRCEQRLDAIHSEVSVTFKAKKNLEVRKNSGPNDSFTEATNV

[26] = target: Androgen receptor (Homo sapiens) (UniProt P10275); settings: Compound concentration 10.0 uM
Androgen receptor (Homo sapiens), sequence (P10275 whole entry): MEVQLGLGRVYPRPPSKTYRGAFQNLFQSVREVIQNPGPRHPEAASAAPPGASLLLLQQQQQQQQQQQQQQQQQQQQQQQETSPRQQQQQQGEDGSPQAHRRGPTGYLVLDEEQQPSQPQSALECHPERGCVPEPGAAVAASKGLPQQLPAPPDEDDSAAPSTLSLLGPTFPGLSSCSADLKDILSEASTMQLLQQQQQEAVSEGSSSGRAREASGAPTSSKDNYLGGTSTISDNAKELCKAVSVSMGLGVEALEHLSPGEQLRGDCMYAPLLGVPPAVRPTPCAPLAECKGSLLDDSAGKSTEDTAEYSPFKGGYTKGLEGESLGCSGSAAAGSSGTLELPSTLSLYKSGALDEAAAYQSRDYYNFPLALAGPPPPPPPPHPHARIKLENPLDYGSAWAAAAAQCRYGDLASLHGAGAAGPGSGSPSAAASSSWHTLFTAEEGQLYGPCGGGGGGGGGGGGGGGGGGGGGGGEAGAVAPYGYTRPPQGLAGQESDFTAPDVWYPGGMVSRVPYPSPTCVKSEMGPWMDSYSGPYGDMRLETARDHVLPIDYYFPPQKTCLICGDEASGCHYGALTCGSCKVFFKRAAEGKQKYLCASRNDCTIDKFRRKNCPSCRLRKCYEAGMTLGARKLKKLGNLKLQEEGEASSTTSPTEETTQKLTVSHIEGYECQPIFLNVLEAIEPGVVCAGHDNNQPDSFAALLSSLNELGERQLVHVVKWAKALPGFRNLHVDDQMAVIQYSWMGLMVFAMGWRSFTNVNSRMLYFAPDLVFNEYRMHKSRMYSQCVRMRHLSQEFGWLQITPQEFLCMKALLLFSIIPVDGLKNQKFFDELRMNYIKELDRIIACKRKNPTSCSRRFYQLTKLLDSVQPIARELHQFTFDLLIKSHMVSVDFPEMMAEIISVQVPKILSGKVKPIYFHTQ
Description: Activity against ANDROGEN/H in the Eurofins Cerep SafetyScreen44 (BI) by Radioactive Assay (Cerep_933)

[27] = target: Vasoactive intestinal peptide receptor 1 (Cavia porcellus) (UniProt A0A286XMQ0); test: Activity against VIP1/GP in the Eurofins Panlabs screen (BI) by Radioactive Assay; settings: Compound concentration 10.0 uM
[28] = target: C-X-C chemokine receptor type 2 (Homo sapiens) (UniProt P25025); test: Activity against IL-8/H in the Eurofins Panlabs screen (BI) by Radioactive Assay; settings: Compound concentration 10.0 uM
[29] = target: Alpha-1B adrenergic receptor (Homo sapiens) (UniProt P35368); test: Activity against ALPHA1B/R in the Eurofins Panlabs screen (BI) by Radioactive Assay; settings: Rattus norvegicus; Compound concentration 10.0 uM
Alpha-1B adrenergic receptor (Homo sapiens), sequence (P35368 whole entry): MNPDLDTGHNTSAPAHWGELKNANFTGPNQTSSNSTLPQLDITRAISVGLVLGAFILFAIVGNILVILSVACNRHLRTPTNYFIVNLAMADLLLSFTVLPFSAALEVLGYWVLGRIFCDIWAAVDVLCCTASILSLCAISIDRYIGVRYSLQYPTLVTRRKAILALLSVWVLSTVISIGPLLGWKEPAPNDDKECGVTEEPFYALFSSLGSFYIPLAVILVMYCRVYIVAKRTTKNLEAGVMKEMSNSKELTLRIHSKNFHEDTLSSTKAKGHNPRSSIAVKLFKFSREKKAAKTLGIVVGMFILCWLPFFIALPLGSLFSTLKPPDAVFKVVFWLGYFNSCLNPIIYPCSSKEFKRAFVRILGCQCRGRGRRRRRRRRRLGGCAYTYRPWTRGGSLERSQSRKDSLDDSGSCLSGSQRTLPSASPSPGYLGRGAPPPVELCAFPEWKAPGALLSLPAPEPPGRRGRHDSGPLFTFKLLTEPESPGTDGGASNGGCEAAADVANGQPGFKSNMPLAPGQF

[30] = target: Interleukin-6 receptor subunit alpha (Homo sapiens) (UniProt P08887); test: Activity against IL-6/H in the Eurofins Panlabs screen (BI) by SPA - blue shifted; settings: Compound concentration 10.0 uM
[31] = target: Mu-type opioid receptor (Homo sapiens) (UniProt P35372); test: mu (MOP) Eurofins-Cerep binding assay; set-up: ligand concentration 0.5 nM; settings: Compound concentration 10.0 uM
[32] = target: Nitric oxide synthase 3 (Rattus norvegicus) (UniProt Q62600); test: Inhibitor of CNOS in the Eurofins Panlabs screen (BI) by Radioactive Assay; settings: Compound concentration 10.0 uM
[33] = target: Prostaglandin G/H synthase 1 (Homo sapiens) (UniProt P23219); test: Inhibitor of COX-1 in the Eurofins Cerep SafetyScreen44 (BI) by Fluorimetry (Cerep_4173); settings: Compound concentration 10.0 uM
[34] = target: Gamma-aminobutyric acid receptor subunit alpha-1 (Rattus norvegicus) (UniProt P62813); test: Activity against GABAACL+ in the Eurofins Panlabs screen (BI) by Radioactive Assay; settings: Compound concentration 10.0 uM

residual activity [1]: 99%
residual activity [2]: 85%
residual activity [3]: 94%
residual activity [4]: 29%
residual activity [5]: 84%
residual activity [6]: 73%
residual activity [7]: 77%
residual activity [8]: 89%
residual activity [10]: 114%
residual activity [11]: 102%
residual activity [12]: 80%
residual activity [13]: 108%
residual activity (Rattus norvegicus): 100%
residual activity [16]: 96%
IC50 [18]: > 10 µM (not active)
residual activity [19]: 98%
residual activity [20]: 107%
residual activity [21]: 83%
residual activity [22]: 84%
residual activity [23]: 118%
residual activity (Cavia porcellus): 97%
residual activity [24]: 94%
IC50 [25]: > 1 µM (not active)
residual activity [26]: 91%
residual activity [27]: 88%
residual activity [28]: 100%
residual activity [29]: 114%
residual activity [30]: 87%
residual activity [31]: 71%
residual activity [32]: 104%
residual activity [34]: 84%
Compound: N=C(N)NCCC[C@@H](NC(=O)C(c1ccccc1)c1ccccc1)C(=O)NCc1ccc(CNC(N)=O)cc1
residual activity [9]: 91%
residual activity [14]: 60%
residual activity [15]: 91%
residual activity [17]: 102%
residual activity [33]: 81%
